Reference: patent publication US20100248390A1, “COMPOSITIONS AND METHODS FOR IDENTIFYING LIGANDS OF ODORANT RECEPTORS” (DUKE UNIVERSITY, priority 2009, published 2010)

Columns and labels:
[1] = target: T1, human odorant receptors (ORs) (Homo sapiens, UniProt Q8NGJ5); assay: CRE-luciferase assay of odorant receptor activation (Dual-Glo, Hana3A cells, RTP1S), dose-response EC50; assay type: cell-based
T1 construct: OR open reading frames were amplified from genomic DNA; expressed in transfected cells; host or cells: Hana3A cells, co-transfected with RTP1S, CRE-luciferase and pRL-SV40
T1 sequence (Q8NGJ5 1-315): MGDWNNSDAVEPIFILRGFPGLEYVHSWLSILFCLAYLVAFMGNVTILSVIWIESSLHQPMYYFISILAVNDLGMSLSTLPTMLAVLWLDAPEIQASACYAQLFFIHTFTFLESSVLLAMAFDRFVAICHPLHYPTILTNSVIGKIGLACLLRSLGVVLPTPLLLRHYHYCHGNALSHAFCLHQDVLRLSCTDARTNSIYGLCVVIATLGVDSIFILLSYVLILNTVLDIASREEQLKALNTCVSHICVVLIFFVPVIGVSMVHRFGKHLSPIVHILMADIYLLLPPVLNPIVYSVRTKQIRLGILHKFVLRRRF
Outline: (§1)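 Hana3A cells were co-transfected with Rho-tagged OR, RTP1S, CRE-luciferase and pRL-SV40, then exposed to odorant in CD293 medium for 4 hrs at 37° C. Firefly luminescence was divided by Renilla and normalized as (LN−Lmin)/(Lmax−Lmin) per plate set. Each dose was tested at least three times, and EC50 came from sigmoidal fits.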

[2] = target: T2, human odorant receptors (ORs) (Homo sapiens, UniProt Q8TCB6); assay: as above; assay type: cell-based
T2 construct: OR open reading frames were amplified from genomic DNA; expressed in transfected cells; host or cells: Hana3A cells, co-transfected with RTP1S, CRE-luciferase and pRL-SV40
T2 sequence (Q8TCB6 1-318): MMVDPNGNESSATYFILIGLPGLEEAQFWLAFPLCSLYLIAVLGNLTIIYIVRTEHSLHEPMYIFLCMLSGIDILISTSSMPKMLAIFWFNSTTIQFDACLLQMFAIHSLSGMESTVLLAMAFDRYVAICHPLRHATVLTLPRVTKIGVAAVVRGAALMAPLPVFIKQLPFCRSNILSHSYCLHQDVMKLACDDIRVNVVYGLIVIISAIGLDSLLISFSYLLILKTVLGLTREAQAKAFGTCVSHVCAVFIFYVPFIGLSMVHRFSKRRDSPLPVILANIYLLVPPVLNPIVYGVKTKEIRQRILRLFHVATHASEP
Outline: as §1

Structure (SMILES) | EC50 [1] [µM] | EC50 [2] [µM]
C=CCOC(=O)Cc1ccccc1 [Allyl phenylacetate] | 67.6 | –
CCCCCCCCC(=O)O [Nonanoic acid] | – | 246
